The results in this text go back to ChEMBL document CHEMBL3352755, “Synthesis and influenza virus inhibitory activities of carbosilane dendrimers peripherally functionalized with hemagglutinin-binding Peptide” (J Med Chem, 2014).

For orientation: IC50 means the point on the concentration scale where inhibition reaches its midpoint. A higher IC50 goes with weaker potency in that assay.

Series [1] can be described thus: Hemolytic activity in chicken erythrocytes at 30 to 40 uM after 24 hrs by spectrophotometry. In kind it is ADME, cell-based, Gallus gallus. As to conditions: erythrocyte.
Another series concerns Influenza A virus. The experiment in a line: Antiviral activity against Influenza A virus (A/Puerto Rico/8/34(H1N1)) infected in MDCK cells after 2 days using crystal violet staining by plaque assay. It counts as functional, organism-based. The conditions noted are these: A/Puerto Rico/8/1934(H1N1), 48 h.
Series [2] in a line: Antiviral activity against Influenza A virus (A/Aichi/2/1968(H3N2)) infected in MDCK cells after 2 days using crystal violet staining by plaque assay. The conditions noted are these: 48 h. It counts as functional, cell-based.
For series [3], the system named is MDCK. The experiment in a line: Cytotoxicity against MDCK cells at 10 times IC50 in antiviral assay after 2 days by WST-1 cell counting assay. In kind it is cell-based, Canis lupus familiaris. As to conditions: dog, 48 h.
Series [4] in a line: Critical micelle concentration of the compound in PBS using N-phenyl-1-naphthylamine by fluorescence assay. As to conditions: buffer. It counts as ADME.
The test system of series [5] is MDCK. The series is described as follows: Cytotoxicity against MDCK cells at 200 uM after 2 days by WST-1 cell counting assay. In kind it is cell-based, Canis lupus familiaris. As to conditions: dog, 48 h. For orientation: Tetrazolium dyes change colour on reduction, which living cells bring about.
Series [6] can be described thus: Hemolytic activity in chicken erythrocytes at 48 uM after 24 hrs by spectrophotometry. It counts as ADME, cell-based, Gallus gallus, Erythrocyte. The conditions noted are these: read-out: Activity.
The nature of series [7]: Hemolytic activity in chicken erythrocytes at 240 uM after 24 hrs by spectrophotometry. It counts as ADME, cell-based, Gallus gallus, Erythrocyte. As to conditions: read-out: Activity.

Where only a bound is given, the exact number is not on record here.

Turning to `CC(C)C[C@H](NC(=O)[C@H](CCCNC(=N)N)NC(=O)[C@H](C)N)C(=O)N1CCC[C@H]1C(=O)N[C@@H](CCCNC(=N)N)C(=O)NCCC[Si](CCCNC(=O)[C@H](CCCNC(=N)N)NC(=O)[C@@H]1CCCN1C(=O)[C@H](CC(C)C)NC(=O)[C@H](CCCNC(=N)N)NC(=O)[C@H](C)N)(CCCNC(=O)[C@H](CCCNC(=N)N)NC(=O)[C@@H]1CCCN1C(=O)[C@H](CC(C)C)NC(=O)[C@H](CCCNC(=N)N)NC(=O)[C@H](C)N)c1ccccc1`, the Activity result (in series [1]; in the series with MDCK [3]) was “Non-toxic” throughout. The results for the IC50 (with Influenza A virus; in series [2]) were 12.6 µM and 5.7 µM, respectively. The molecule further yielded a CMC in series [4] of 3.9 µM.
Take `CC(C)C[C@H](NC(=O)[C@H](CCCNC(=N)N)NC(=O)[C@H](C)N)C(=O)N1CCC[C@H]1C(=O)N[C@@H](CCCNC(=N)N)C(=O)NCCC[Si](CCCNC(=O)[C@H](CCCNC(=N)N)NC(=O)[C@@H]1CCCN1C(=O)[C@H](CC(C)C)NC(=O)[C@H](CCCNC(=N)N)NC(=O)[C@H](C)N)(CCCNC(=O)[C@H](CCCNC(=N)N)NC(=O)[C@@H]1CCCN1C(=O)[C@H](CC(C)C)NC(=O)[C@H](CCCNC(=N)N)NC(=O)[C@H](C)N)CCCNC(=O)[C@H](CCCNC(=N)N)NC(=O)[C@@H]1CCCN1C(=O)[C@H](CC(C)C)NC(=O)[C@H](CCCNC(=N)N)NC(=O)[C@H](C)N`: the Activity entry (in series [1]; in the series with MDCK [5]) was “Non-toxic” each time. The half-maximal inhibitory concentration (IC50) (in the series on Influenza A virus; in series [2]) was more than 400 µM each time.
For the molecule `CC(C)C[C@H](NC(=O)[C@H](CCCNC(=N)N)NC(=O)[C@H](C)N)C(=O)N1CCC[C@H]1C(=O)N[C@@H](CCCNC(=N)N)C(=O)NCCC[Si](CCCNC(=O)[C@H](CCCNC(=N)N)NC(=O)[C@@H]1CCCN1C(=O)[C@H](CC(C)C)NC(=O)[C@H](CCCNC(=N)N)NC(=O)[C@H](C)N)(CCCNC(=O)[C@H](CCCNC(=N)N)NC(=O)[C@@H]1CCCN1C(=O)[C@H](CC(C)C)NC(=O)[C@H](CCCNC(=N)N)NC(=O)[C@H](C)N)CCC[Si](C)(C)CCC[Si](CCCNC(=O)[C@H](CCCNC(=N)N)NC(=O)[C@@H]1CCCN1C(=O)[C@H](CC(C)C)NC(=O)[C@H](CCCNC(=N)N)NC(=O)[C@H](C)N)(CCCNC(=O)[C@H](CCCNC(=N)N)NC(=O)[C@@H]1CCCN1C(=O)[C@H](CC(C)C)NC(=O)[C@H](CCCNC(=N)N)NC(=O)[C@H](C)N)CCCNC(=O)[C@H](CCCNC(=N)N)NC(=O)[C@@H]1CCCN1C(=O)[C@H](CC(C)C)NC(=O)[C@H](CCCNC(=N)N)NC(=O)[C@H](C)N`, the IC50 in the series with Influenza A virus came to 0.72 µM; in series [2], 0.6 µM. Besides, in series [6], the hemolysis at 24 h, 48 µM was 46%. The Activity result in the series with MDCK [3] is “Non-toxic”. Further, in series [4], the CMC was found to be 4 µM. For the same molecule, the hemolysis at 24 h, 240 µM in series [7] was 85%.
